Earlier results, collected in US20060280786A1, “PHARMACEUTICAL FORMULATIONS FOR MINIMIZING DRUG-DRUG INTERACTIONS” (priority 2005, published 2006).

Conditions: 200 mg dose of itraconazole

CCC(C)n1ncn(-c2ccc(N3CCN(c4ccc(OCC5COC(Cn6cncn6)(c6ccc(Cl)cc6Cl)O5)cc4)CC3)cc2)c1=O (stereo not shown) [itraconazole]
fu (fraction of inhibitor drug unbound in plasma): 0.035
